In US11059778B2, “Cannabinoid receptor CB2 ligand 4-(aminomethyl)-N, N-dialkylanilines” (UNIVERSITY OF PITTSBURGH—OF THE COMMONWEALTH SYSTEM OF …, priority 2015, dated 2021):

Experiments:
human CB2 receptors = biological target: T1, human CB2 receptors (Homo sapiens, UniProt P34972); experiment: [3H]CP-55,940 radioligand competition binding assay, CB2; settings: for Ki: CHO cell membranes, [3H]CP-55,940 displacement
T1 construct: expressed in transfected cells
Procedure: (§1) Binding assay. The bioassay is carried out using the Perkin Elmer 96-well Top Counter. This bioassay is also known as a competition binding assay and the biological evaluation is to determine the CB receptor binding affinity (Ki) of the screened ligands by displacing [^3H]-CP-55940 (or other radioligands). The brief procedure is given below.
(§2) Perkin Elmer 96-well TopCounter is used at PMLSC and in our laboratory to determine the CB receptor binding affinity (Ki) of the in-silico screened ligands by displacing [^3H]-CP-55,940 (or other radioligands). In competition binding experiments, the tested compound dilutions are carried out in triplicate in TME buffer (25 mM Tris, 5 mM MgCl2, 1 mM EDTA) containing 0.1% (w/v) fatty acid free bovine serum albumin (BSA), pH 7.4. Various concentrations of the tested compound are added in the same volume to 0.5 nM [^3H]CP-55,940. TME buffer and cell membrane preparations expressing CB receptors (2.5 μg per well) are added to a final volume of 200 μL. For the saturation binding experiments, varying concentrations of [^3H]CP-55,940 (0.05-1.5 nM) with or without 2 μM of unlabeled ligands (CP-55,940 or WIN-55,212-2) are incubated with the receptor membrane preparations to determine Kd and nonspecific binding. After the binding suspensions are incubated at 30° C. for 1 hr, the reaction is terminated by rapid filtration through microfiltration plates coated with 0.5% polyethylenimine (Unifilter GF/B filterplate, PerkinElmer) followed by 5 washes with ice cold TME buffer containing 0.5% BSA on a Packard Filtermate Harvester (PerkinElmer). The plates are then dried overnight and 30 μl MicroScint 0 scintillation cocktail are added to each well of the dried filter plates. Then the bound radioactivity is counted using a Perkin Elmer 96-well TopCounter. The Ki is calculated by using nonlinear regression analysis (Prism 5; GraphPad Software Inc., San Diego, Calif.), with the Kd values for [^3H]CP-55,940 determined from saturation binding experiments. This assay is used for determining binding affinity parameters (Ki) of ligand-receptor interactions for the CB receptor.
(§3) The affinities of the synthesized ligands were determined in radioligand binding studies at human CB1 and CB2 receptors using [3H](—)-cis-3-[2-hydroxy-4-(1,1 dimethylheptyl)phenyl]-trans-4-(3-hydroxypropyl) cyclohexanol (CP55,940) as a CB receptor radioligand. As a source for human CB1 and CB2 receptors, membrane preparations of Chinese hamster ovary (CHO) cells stably expressing the respective receptor subtype were utilized (50 μg of protein/vial). CB2 selective ligand SR144528 (CB2 inverse agonist) and CB1 ligand SR141716 (CB1 inverse agonist) were used as positive controls, respectively, along with the tested compounds in bioassays experiments. Only compounds with high CB2 receptor binding potency was chosen to carry out the CB1 binding assay. CB ligand competition binding assay was carried out as described previously in Gertsch, J., et al., Beta-caryophyllene is a dietary cannabinoid. Proc Natl Acad Sci USA 2008, 105 (26), 9099-104. Briefly, non-radioactive (or cold) ligands (synthesized derivatives and reference ligands) were diluted in a binding buffer (50 mM Tris-HCl (pH 7.4), 5 mM MgC12, 2.5 mM EGTA, and 0.1% (w/v) fatty acid free BSA), supplemented with 10% dimethyl sulfoxide and 0.4% methyl cellulose. Each assay plate well contained a total of 200 μL of reaction mixture composed of 5 μg of CB1 (or 2.5 μg CB2) membrane protein, labeled [3H]-CP-55,940 ligand at a final concentration of 2.5 nM, and the unlabeled ligand at its varying dilutions as stated above. Plates were incubated at 30° C. for 1 hour with gentle shaking.
(§4) The reaction was terminated by rapid filtration through Unifilter GF/B filter plates using a Unifilter Cell Harvester (PerkinElmer). After the plate was allowed to dry overnight, 30 μL MicroScint-0 cocktail (PerkinElmer) was added to each well, and the radioactivity was counted using a PerkinElmer TopCounter. […]

human CB1 receptors = biological target: T2, human CB1 receptors (Homo sapiens, UniProt P21554); experiment: [3H]CP-55,940 radioligand competition binding assay, CB1; settings: CHO cell membranes, [3H]CP-55,940 displacement
T2 construct: expressed in transfected cells
Procedure: as §1, §2, §3, §4

T1 sequence (P34972 whole entry): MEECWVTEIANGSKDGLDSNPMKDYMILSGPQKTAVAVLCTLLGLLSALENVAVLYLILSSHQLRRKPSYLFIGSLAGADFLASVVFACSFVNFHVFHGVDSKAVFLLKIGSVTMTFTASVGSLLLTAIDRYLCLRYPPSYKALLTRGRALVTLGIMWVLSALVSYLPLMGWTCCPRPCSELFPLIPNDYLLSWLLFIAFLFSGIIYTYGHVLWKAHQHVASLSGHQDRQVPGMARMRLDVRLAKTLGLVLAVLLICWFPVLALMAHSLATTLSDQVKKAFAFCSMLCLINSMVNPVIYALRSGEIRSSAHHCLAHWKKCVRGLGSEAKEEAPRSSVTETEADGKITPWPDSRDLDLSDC
T2 sequence (P21554 whole entry): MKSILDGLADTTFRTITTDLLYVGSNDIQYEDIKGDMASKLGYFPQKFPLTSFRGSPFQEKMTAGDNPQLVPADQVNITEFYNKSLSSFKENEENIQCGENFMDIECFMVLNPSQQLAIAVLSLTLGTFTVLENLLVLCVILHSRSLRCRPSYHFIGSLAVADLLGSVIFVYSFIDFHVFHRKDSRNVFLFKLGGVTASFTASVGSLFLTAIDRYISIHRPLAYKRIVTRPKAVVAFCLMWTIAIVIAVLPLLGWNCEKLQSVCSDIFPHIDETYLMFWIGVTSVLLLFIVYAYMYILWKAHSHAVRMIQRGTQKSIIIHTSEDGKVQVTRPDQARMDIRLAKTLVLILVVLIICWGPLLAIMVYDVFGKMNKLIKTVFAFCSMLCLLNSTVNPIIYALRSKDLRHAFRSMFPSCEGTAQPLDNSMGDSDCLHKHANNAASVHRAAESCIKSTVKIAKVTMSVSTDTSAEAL

| Compound | Ki (human CB2 receptors) [nM] | SI: selectivity index for CB2, calculated as Ki(CB1)/Ki(CB2) ratio (human CB2 receptors) | Ki (human CB1 receptors) [nM] | Ki (CB1) (human CB1 receptors) |
| --- | --- | --- | --- | --- |
| CCCCCN(Cc1ccc(N(CC)CC)cc1)S(=O)(=O)c1ccc(-c2ccccc2)cc1 [Compound 42, N-(4-(diethylamino)benzyl)-N-pentyl-[1,1′-biphenyl]-4-sulfonamide] | 3150 | – | – | – |
| CCN(CC)c1ccc(CN(Cc2cc(OC)c(OC)c(OC)c2)S(=O)(=O)c2ccc(OC(F)(F)F)cc2)cc1 [Compound 13, N-(4-(diethylamino)benzyl)-4-(trifluoromethoxy)-N-(3,4,5-trimethoxybenzyl)benzenesulfonamide] | 990 | 2 | 1240 | – |
| CCN(CC)c1ccc(CN(Cc2cccnc2)C(=O)c2cnc3ccccc3n2)cc1 [Compound 22, N-(4-(diethylamino)benzyl)-N-(pyridin-3-ylmethyl)quinoxaline-2-carboxamide] | 1200 | – | – | – |
| CCN(CC)c1ccc(CN(Cc2cc(OC)c(OC)c(OC)c2)S(=O)(=O)c2cccc(C)c2)cc1 [Compound 5, N-(4-(diethylamino)benzyl)-3-methyl-N-(3,4,5-trimethoxybenzyl)benzenesulfonamide] | 291 | 3 | 732 | – |
| CCN(CC)c1ccc(CN(Cc2cc(OC)c(OC)c(OC)c2)S(=O)(=O)c2ccc(OC)cc2)cc1 [Compound 4, N-(4-(diethylamino)benzyl)-4-methoxy-N-(3,4,5-trimethoxybenzyl)benzenesulfonamide] | 410 | 50 | > 20000 | no CB1 binding affinity |
| CCN(CC)c1ccc(CN(Cc2cc(OC)c(OC)c(OC)c2)S(=O)(=O)c2ccc(-c3ccccc3)cc2)cc1 [Compound 10, N-(4-(diethylamino)benzyl)-N-(3,4,5-trimethoxybenzyl)-[1,1′-biphenyl]-4-sulfonamide] | 322 | 62 | > 20000 | – |
| CCN(CC)c1ccc(CN(Cc2ccc3c(c2)OCO3)S(=O)(=O)c2ccc3ccccc3c2)cc1 [Compound 33, N-(benzo[d][1,3]dioxol-5-ylmethyl)-N-(4-(diethylamino)benzyl)naphthalene-2-sulfonamide] | 882 | – | – | – |
| CCN(CC)c1ccc(CN(Cc2cc(OC)c(OC)c(OC)c2)S(=O)(=O)c2ccccc2)cc1 [Compound 7, N-(4-(diethylamino)benzyl)-N-(3,4,5-trimethoxybenzyl)benzenesulfonamide] | 453 | 44 | > 20000 | no affinity |
| CCN(CC)c1ccc(CN(Cc2ccc3c(c2)OCO3)S(=O)(=O)c2ccc(C=O)cc2)cc1 [Compound 30, N-(benzo[d][1,3]dioxol-5-ylmethyl)-N-(4-(diethylamino)benzyl)-4-formylbenzenesulfonamide] | 1870 | 1 | 2740 | – |
| 4-(((benzo[d][1,3]dioxol-5-ylmethyl)(quinoxalin-2-ylmethyl)amino)methyl)-N,N-diethylaniline [Compound 31] | 775 | 2 | 1270 | – |
| CCN(CC)c1ccc(CN(Cc2cc(OC)c(OC)c(OC)c2)S(=O)(=O)c2ccc(C)cc2)cc1 [Compound 6, N-(4-(diethylamino)benzyl)-4-methyl-N-(3,4,5-trimethoxybenzyl)benzenesulfonamide] | 387 | 2 | 774 | – |
| CCN(CC)c1ccc(CN(Cc2cc(OC)c(OC)c(OC)c2)S(=O)(=O)c2ccc3ccccc3c2)cc1 [Compound 9, N-(4-(diethylamino)benzyl)-N-(3,4,5-trimethoxybenzyl)naphthalene-2-sulfonamide] | 239 | – | 71 | – |
| CCN(CC)c1ccc(CN(Cc2cc(OC)c(OC)c(OC)c2)C(=O)c2cnc3ccccc3n2)cc1 [Compound 12, N-(4-(diethylamino)benzyl)-N-(3,4,5-trimethoxybenzyl)quinoxaline-2-carboxamide] | 249 | 52 | 13000 | – |
| CCN(CC)c1ccc(CN(Cc2cccnc2)S(=O)(=O)c2ccc(-c3ccccc3)cc2)cc1 [Compound 25, N-(4-(diethylamino)benzyl)-N-(pyridin-3-ylmethyl)-[1,1′-biphenyl]-4-sulfonamide] | 946 | 21 | > 20000 | – |
| CCN(CC)c1ccc(CN(Cc2cccnc2)S(=O)(=O)c2ccc3ccccc3c2)cc1 [Compound 24, N-(4-(diethylamino)benzyl)-N-(pyridin-3-ylmethyl)naphthalene-2-sulfonamide] | 866 | 14 | 12000 | – |
| CCN(CC)c1ccc(CNCc2ccc3c(c2)OCO3)cc1 [Compound 28, 4-(((benzo[d][1,3]dioxol-5-ylmethyl)amino)methyl)-N,N-diethylaniline] | > 20000 | – | – | – |
| CCCCCNCc1ccc(N(CC)CC)cc1 [Compound 36, N,N-diethyl-4-((pentylamino)methyl)aniline] | 40200 | – | – | – |
| CCN(CC)c1ccc(CN(Cc2ccc3c(c2)OCO3)S(=O)(=O)/C=C/c2ccccc2)cc1 [Compound 29, (E)-N-(benzo[d][1,3]dioxol-5-ylmethyl)-N-(4-(diethylamino)benzyl)-2-phenylethene-1-sulfonamide] | 381 | 3 | 1160 | – |
| CCN(CC)c1ccc(CNCc2cccnc2)cc1 [Compound 20, N,N-diethyl-4-(((pyridin-3-ylmethyl)amino)methyl)aniline] | > 20000 | – | – | – |
| CCN(CC)c1ccc(CN(Cc2cc(OC)c(OC)c(OC)c2)S(=O)(=O)c2ccc(C(C)C)cc2)cc1 [Compound 8, N-(4-(diethylamino)benzyl)-4-isopropyl-N-(3,4,5-trimethoxybenzyl)benzenesulfonamide] | 230 | – | 122 | – |
| CCN(CC)c1ccc(CNCc2cc(OC)c(OC)c(OC)c2)cc1 [Compound 3, N,N-diethyl-4-(((3,4,5-trimethoxybenzyl)amino)methyl)aniline] | 42300 | – | – | – |
| CCCCCN(Cc1ccc(N(CC)CC)cc1)S(=O)(=O)/C=C/c1ccccc1 [Compound 37, (E)-N-(4-(diethylamino)benzyl)-N-pentyl-2-phenylethene-1-sulfonamide] | 515 | 10 | 5240 | – |
| CCN(CC)c1ccc(CN(Cc2cccnc2)S(=O)(=O)/C=C/c2ccccc2)cc1 [Compound 23, (E)-N-(4-(diethylamino)benzyl)-2-phenyl-N-(pyridin-3-ylmethyl)ethene-1-sulfonamide] | 899 | 6 | 5460 | – |
| CCN(CC)c1ccc(CN(Cc2ccc3c(c2)OCO3)S(=O)(=O)c2ccc(-c3ccccc3)cc2)cc1 [Compound 34, N-(benzo[d][1,3]dioxol-5-ylmethyl)-N-(4-(diethylamino)benzyl)-[1,1′-biphenyl]-4-sulfonamide] | 2000 | – | – | – |
| CCN(CC)c1ccc(CN(Cc2cc(OC)c(OC)c(OC)c2)S(=O)(=O)c2ccc(OC)c(OC)c2)cc1 [Compound 17, N-(4-(diethylamino)benzyl)-3,4-dimethoxy-N-(3,4,5-trimethoxybenzyl)benzenesulfonamide] | 657 | – | – | – |
| CCN(CC)c1ccc(CN(Cc2cccnc2)C(=O)c2cccs2)cc1 [Compound 21, N-(4-(diethylamino)benzyl)-N-(pyridin-3-ylmethyl)thiophene-2-carboxamide] | 1020 | – | – | – |
